Earlier results in patent US5208032A, “Increasing the growth of turkeys using implant of 19-nortestosterone” (Rutgers, The State University of New Jersey, priority 1992, dated 1993).

Legend:
testosterone antiserum = settings: manufacturer statement; cited from earlier work
5-alpha-DHT anti-serum = settings: antibody provided by Dr. Alan L. Johnson; cited from earlier work
[1] = mice, Innovative Research pellets, 21 days; cited from earlier work

SMILES | cross-reaction with Immuchem testosterone antiserum (testosterone antiserum) | reaction with 5-alpha-DHT anti-serum (Ford's-F/1) (5-alpha-DHT anti-serum) | maintained blood levels [1]
C[C@]12CC[C@@H](O)C[C@@H]1CC[C@@H]1[C@@H]2CC[C@]2(C)[C@@H](O)CC[C@@H]12 [5-alpha-androstane-3-alpha,17-beta-diol] | less than 0.01% | – | –
C[C@]12CCC(=O)C=C1CC[C@@H]1[C@@H]2CC[C@]2(C)C(=O)CC[C@@H]12 [4-adrosten-3,17-dione] | 0.56% | 11.4% | –
C[C@]12CC[C@@H]3c4ccc(O)cc4CC[C@H]3[C@@H]1CC[C@@H]2O [17 beta-estradiol] | – | – | 20 to 30 ng/mL
